Data as given in patent US9149471B2, “Therapeutic agent for osteoporosis” (NATIONAL UNIV. CORP. TOKYO UNIV. OF AG. AND TECH, priority 2013, dated 2015).

Tests used:
[1] = test system: mouse model intratibially transplanted with a PC-3 human prostate cancer cell line; test: Abnormal bone formation and bone resorption in mouse model intratibially transplanted with PC-3 cells (μCT); type: in vivo; conditions: PC-3 in mouse tibia, 200 mg/kg/day orally every day for 10 days
Experimental: Inhibitory Effect on the Abnormal Bone Formation and Bone Resorption in the Mouse Model Intratibially Transplanted with a PC-3 Human Prostate Cancer Cell Line
The PC-3 human prostate cancer cell line was transplanted in the mouse tibia at 2×10^6 cells/15 μL. On the following day of transplantation, the mice were grouped so that the average body weight of the mice in each group was equal, and the compound IA was administered orally at 200 mg/kg/day every day for 10 days. On Day 11 after transplantation, the graft site was imaged by μCT and bone lesions were evaluated.

[2] = test system: mouse model intratibially transplanted with an A549-luc-BM1 human lung cancer cell line; test: Abnormal bone formation and bone resorption in mouse model intratibially transplanted with A549-luc-BM1 cells (μCT); type: in vivo; conditions: A549-luc-BM1 in mouse tibia
Source text: Inhibitory Effect on the Abnormal Bone Formation and Bone Resorption in the Mouse Model Intratibially Transplanted an A549-Luc-BM1 Human Lung Cancer Cell Line The A549 human lung cancer cell line in which the luciferase gene was transfected was transplanted in the left ventricle of nude mice, whereby the A549-luc-BM1 lung cancer cell line, which selectively metastasizes to and proliferates in the bone, was established. The cells thus obtained were transplanted in the mouse tibia at 2×10^6 cells/15 μL. On Day 7 after transplantation, the luciferase activity in the graft site was measured by an in-vivo imaging system. Subsequently, the mice were grouped so that the average luciferase activity of each group was equal, and the compound IA was administered orally at 200 mg/kg/day every day for 28 days. The treatment control group received subcutaneous administration of zoledronic acid, which is the third-generation bisphosphonate preparation, at 0.2 mg/kg/day twice a week. For the evaluation of bone lesions, the graft site was imaged by μCT on Day 36 after transplantation.

**Q.** `CNC(=O)c1cc2c(Oc3ccc(NC(=S)NC(=O)Cc4ccccc4)cc3F)ccnc2cc1OC` [Compound IA, 4-[2-fluoro-4-[[[(2-phenylacetyl)amino]thioxomethyl]amino]-phenoxy]-7-methoxy-N-methyl-6-quinolinecarboxamide] was tested. Which “bone mass (inhibition of accelerated metabolic bone destruction and formation of abnormal brittle bone)” value [1] did it give?
**A.** maintained a normal level of bone mass

**Q.** What about the “death and body weight reduction” value [1] of the same compound?
**A.** without causing death or reducing body weight

**Q.** What about the “abnormal bone formation in the bone at the graft site (μCT, FIG. 1)” value ([1]; μCT on Day 11 after transplantation) of the same compound?
**A.** evidently inhibited the abnormal bone formation

**Q.** What about the “inhibitory effect on abnormal bone metabolism (bone resorption and bone formation) compared with zoledronic acid” value ([2]; 200 mg/kg/day orally for 28 days) of the same compound?
**A.** better inhibitory effect on abnormal bone metabolism (bone resorption and bone formation) than zoledronic acid

**Q.** What about the “bone destruction and deformation at the graft site (μCT, FIG. 2)” value ([2]; compound IA 200 mg/kg/day orally for 28 days, zoledronic acid 0.2 mg/kg/day s.c. twice a week, μCT on Day 36) of the same compound?
**A.** remarkably inhibited bone destruction and deformation
